# Patent US20220298115A1, “SMALL MOLECULE INHIBITORS OF ACETYL COENZYME A SYNTHETASE SHORT CHAIN 2 (ACSS2)” (Curadev Pharma Pvt. Ltd., priority 2019, published 2022)
# Where two headings read alike, the source gives them in different places.
# What was measured:
# [1] = system: [14C] acetate incorporation in macromolecules, BT474 cells; experiment: Cell based [14C] acetate incorporation assay; conditions: read-out: Cellular Activity (IC50 range)
# Procedure: Cell Based [^14C] Acetate Incorporation Assay
# In the cellular assay, ACSS2 inhibitors were screened against [^14C] acetate incorporation in macromolecules. 4×10^4 BT474 cells were plated in 96 well plates in growth media composed of DMEM & 10% FBS and incubated overnight in a 37° C., 5% CO2 incubator. The following day the cells were washed in HBSS and the assay was performed in 100 μl of HBSS. 50 μl of 4× compound in 4% DMSO was added to the cells and preincubated for 10 min. at 37° C. 50 μl of acetate solution (0.1 μCi ^14C acetate+10 μM ^12C acetate) was added to each well of the plate and incubated for 3 h in a 37° C., 5% CO2 incubator. Following incubation, cells were harvested with water on polyethylene imine (PEI) presoaked GF/C filtermat, air dried and radioactive count were recorded in Trilux micro beta Liquid Scintillation Counter (PerkinElmer).
# [2] = target: T1, human ACSS2 (Homo sapiens, UniProt Q9NR19); experiment: ACSS2 enzyme assay (acetyl-CoA formation, LC-MS/MS); format: biochemical; conditions: cytosolic fraction of BT474 cells as ACSS2 source; 100 μM acetate, CoA and ATP; 2 h at 25° C.; read-out: Enzyme Activity (IC50 range)
# T1 construct: The cytosolic fraction of BT474 cells was used as a source of the ACSS2 enzyme; endogenous in cells; host or cells: BT474 cells (cytosolic fraction)
# T1 sequence (Q9NR19 whole entry): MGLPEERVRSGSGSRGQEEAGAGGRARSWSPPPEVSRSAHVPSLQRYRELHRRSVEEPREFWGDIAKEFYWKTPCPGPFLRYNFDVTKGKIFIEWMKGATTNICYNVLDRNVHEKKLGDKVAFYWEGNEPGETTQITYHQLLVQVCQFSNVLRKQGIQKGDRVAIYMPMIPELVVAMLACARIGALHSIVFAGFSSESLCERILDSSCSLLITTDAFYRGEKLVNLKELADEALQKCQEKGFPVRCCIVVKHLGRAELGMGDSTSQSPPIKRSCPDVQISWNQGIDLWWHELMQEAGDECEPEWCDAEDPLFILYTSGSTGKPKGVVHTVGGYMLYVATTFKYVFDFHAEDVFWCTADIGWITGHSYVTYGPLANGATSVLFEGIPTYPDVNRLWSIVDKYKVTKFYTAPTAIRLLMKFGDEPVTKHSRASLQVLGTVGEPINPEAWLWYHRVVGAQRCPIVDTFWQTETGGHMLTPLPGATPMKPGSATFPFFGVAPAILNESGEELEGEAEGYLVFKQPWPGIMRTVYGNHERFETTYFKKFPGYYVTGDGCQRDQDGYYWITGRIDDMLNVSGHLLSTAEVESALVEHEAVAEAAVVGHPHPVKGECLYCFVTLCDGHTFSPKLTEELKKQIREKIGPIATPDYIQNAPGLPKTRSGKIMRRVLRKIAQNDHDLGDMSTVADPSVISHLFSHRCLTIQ
# Procedure: Novel compounds were screened in a human ACSS2 enzyme assay. Briefly, the ACSS2 enzyme reaction was monitored by directly measuring acetyl-CoA formation. The cytosolic fraction of BT474 cells was used as a source of the ACSS2 enzyme. A short protocol for this assay is provided below.
# Preparation of Cytosolic Fraction from BT474 Cells
# 9×10^6 cells were harvested by trypsinization followed by centrifugation. The cell pellet was washed with PBS and dissolved in 500 μl STM buffer (50 mM Tris-HCl pH7.4, 250 mM sucrose, 5 mM MgCl2 & protease-phosphatase inhibitor cocktail) and homogenized at 600-1000 rpm for 1 min. on ice followed by incubation for 30 min. with intermittent vortexing. Supernatant was collected by centrifugation at 800 g for 15 min. at 4° C. Cytosolic fraction was prepared by further centrifugation of the supernatant at 12000 g for 15 min. at 4° C. Total protein content of the cytosolic fraction was estimated & diluted to 1 mg/ml concentration in storage buffer (25 mM Tris-HCl pH7.4, 1 mM MgCl2, 1 mM DTT & 10% glycerol) and stored at −80° C. for further use.
# 100 ng of cytosolic fraction in buffer composed of 25 mM Tris-HCl pH7.4 1 mM MgCl2, 1 mM DTT & 0.05% Tween20 was preincubated with desired concentrations of novel compounds for 5 min. maintaining 1% DMSO. Reaction was started with addition of substrate mix (100 μM of acetate, CoA and ATP) and incubated for 2 h at 25° C. with constant shaking at 500 rpm. Post incubation the reaction was terminated by addition of 10% TCA followed by 5 fold dilution in water. The reaction mixture was centrifuged at 800 g for 10 min. at RT and acetyl-CoA detected in supernatant by LC-MS/MS (QTrap5500 ABSCIEX).
# [3] = Homo sapiens, BT-474, 3 h at 37° C.
Structure (SMILES),"IC50 [1, 3]",IC50 [2],IC50 ([1]; 3 h at 37° C.)
"C#CCNC(=O)Nc1ccc2nc(-c3ccccc3)c(-c3ccccc3)cc2c1 [Example 135, 1-(2,3-diphenylquinolin-6-yl)-3-(prop-2-yn-1-yl)urea]",≤ 1000 nM,≤ 1000 nM,
"CCC(CNC(=O)Nc1ccc2nc(C)c(-c3ccccc3)cc2c1)NC(C)=O (stereo not shown) [Example 99, N-(1-(3-(2-methyl-3-phenylquinolin-6-yl)ureido)butan-2-yl)acetamide]",≤ 1000 nM,≤ 1000 nM,
"CCC(O)CNC(=O)Nc1ccc2nc(-c3cccnc3)c(-c3ccccc3)cc2c1 (stereo not shown) [Example 41, 1-(2-hydroxybutyl)-3-(3-phenyl-2-(pyridin-3-yl)quinolin-6-yl)urea]",< 100 nM,< 100 nM,
"CCC(CNC(=O)Nc1ccc2nc(-c3ccccc3)c(-c3ccccc3F)cc2c1)OC (stereo not shown) [Example 44, 1-(3-(2-fluorophenyl)-2-phenylquinolin-6-yl)-3-(2-methoxybutyl) urea]",< 100 nM,< 100 nM,
"O=C(Nc1ccc2nc(-c3ccccc3)c(-c3ccccc3)cc2c1)NC1CCCCC1 [Example 131, 1-cyclohexyl-3-(2,3-diphenylquinolin-6-yl)urea]",≤ 1000 nM,≤ 1000 nM,
"CN1CCC(NC(=O)Nc2ccc3nc(-c4ccccc4)c(-c4ccccc4)cc3c2)C1 (stereo not shown) [Example 141, 1-(2,3-diphenylquinolin-6-yl)-3-(1-methylpyrrolidin-3-yl)urea]",> 10000 nM,≤ 10000 nM,
"CCCCNC(=O)Nc1ccc2nc(-c3ccccc3)c(-c3ccccc3)cc2c1-c1cccnc1O [Example 5, 1-butyl-3-(5-(2-hydroxypyridin-3-yl)-2,3-diphenylquinolin-6-yl)urea]",< 100 nM,< 100 nM,
"CC[C@@H](O)CNC(=O)Nc1ccc2nc(C)c(-c3ccccc3)c(C)c2c1 [Example 113, (R)-1-(2,4-dimethyl-3-phenylquinolin-6-yl)-3-(2-hydroxybutyl) urea]",< 100 nM,< 100 nM,
"CCCCCC(=O)Nc1ccc2nc(-c3ccccc3F)c(-c3ccccc3F)cc2c1 [Example 121, N-(2,3-bis(2-fluorophenyl)quinolin-6-yl) hexanamide]",≤ 1000 nM,< 100 nM,
"CCC(O)CNC(=O)Nc1ccc2nc(C)c(-c3ccccc3)cc2c1C1CC1 (stereo not shown) [Example 86, 1-(5-cyclopropyl-2-methyl-3-phenylquinolin-6-yl)-3-(2-hydroxybutyl) urea]",< 100 nM,< 100 nM,
"CCC(O)CNC(=O)Nc1ccc2nc(-c3ccccc3)c(-c3ccccc3)c(C(=O)O)c2c1 (stereo not shown) [Example 65, 6-(3-(2-hydroxybutyl)ureido)-2,3-diphenylquino-line-4-carboxylic acid]",≤ 10000 nM,< 100 nM,
"CCC(O)CNC(=O)Nc1ccc2nc(-c3ccccc3)c(-c3ccccc3OC)cc2c1 (stereo not shown) [Example 10, 1-(2-hydroxybutyl)-3-(3-(2-methoxyphenyl)-2-phenylquinolin-6-yl)urea]",< 100 nM,< 100 nM,
"CCC(O)CCC(=O)Nc1ccc2nc(C)c(-c3ccccc3F)cc2c1 (stereo not shown) [Example 129, N-(3-(2-fluorophenyl)-2-methyl-quinolin-6-yl)-4-hydroxy-hexanamide]",< 100 nM,< 100 nM,
"CCc1nc2ccc(NC(=O)NCC(O)CC)cc2cc1-c1ccccc1 (stereo not shown) [Example 61, 1-(2-ethyl-3-phenylquinolin-6-yl)-3-(2-hydroxybutyl) urea]",< 100 nM,< 100 nM,
"CCC(O)CNC(=O)Nc1ccc2nc(-c3ccccc3)c(-c3ccccc3)c(N)c2c1 (stereo not shown) [Example 95, 1-(4-Amino-2,3-diphenylquinolin-6-yl)-3-(2-hydroxybutyl)urea]",< 100 nM,< 100 nM,
"CC[C@@H](O)CNC(=O)Nc1ccc2nc(-c3ccccc3)c(-c3ccccc3F)cc2c1 [Example 15, (R)-1-(3-(2-Fluorophenyl)-2-phenylquinolin-6-yl)-3-(2-hydroxybutyl)urea]",< 100 nM,< 100 nM,

Structure (SMILES),"IC50 [1, 3]",IC50 [2],IC50 ([1]; 3 h at 37° C.)
"CCCCCC(=O)Nc1ccc2nc(-c3ccccc3)c(-c3ccccc3)cc2c1 [Example 118, N-(2,3-diphenyl-quinolin-6-yl) hexanamide]",≤ 1000 nM,≤ 1000 nM,
"CCC(O)CNC(=O)Nc1ccc2nc(-c3ccccc3OC)c(-c3ccccc3OC)cc2c1 (stereo not shown) [Example 6, 1-(2,3-bis(2-methoxyphenyl)quinolin-6-yl)-3-(2-hydroxybutyl) urea]",< 100 nM,< 100 nM,
"CC[C@@H](O)CNC(=O)Nc1ccc2nc(-c3ccccc3)c(C)c(C(=O)NCc3ccccc3)c2c1 [Example 104, (R)-N-benzyl-6-(3-(2-hydroxybutyl)ureido)-3-methyl-2-phenylquinoline-4-carboxamide]",< 100 nM,< 100 nM,
"CC[C@@H](O)CNC(=O)Nc1ccc2nc(-c3ccccc3)c(C)c(C(=O)NCc3cnn(C)c3)c2c1 [Example 114, (R)-6-(3-(2-hydroxybutyl)ureido)-3-methyl-N-((1-methyl-1H-pyrazol-4-yl)methyl)-2-phenylquinoline-4-carboxamide]",≤ 1000 nM,< 100 nM,
"CCC(F)(F)CNC(=O)Nc1ccc2nc(C)c(-c3ccccc3F)cc2c1 [Example 110, 1-(2,2-difluorobutyl)-3-(3-(2-fluorophenyl)-2-methylquinolin-6-yl)urea]",< 100 nM,< 100 nM,
"CCCCNC(=O)Nc1ccc2nc(C)c(-c3ccccc3)cc2c1 [Example 76, 1-butyl-3-(2-methyl-3-phenylquinolin-6-yl)urea]",< 100 nM,≤ 1000 nM,
"CCCCCC(=O)Nc1ccc2nc(-c3ccccc3OC)c(-c3ccccc3OC)cc2c1 [Example 119, N-(2,3-bis(2-methoxy-phenyl)quinolin-6-yl) hexanamide]",< 100 nM,< 100 nM,
"CCC(=O)CCC(=O)Nc1ccc2nc(-c3ccccc3F)c(-c3ccccc3F)cc2c1 [Example 124, N-(2,3-Bis(2-fluorophenyl)quinolin-6-yl)-4-oxohexanamide]",< 100 nM,< 100 nM,
"CCC(O)CNC(=O)Nc1ccc2nc(-c3ccccc3NC(C)=O)c(-c3ccccc3F)cc2c1 (stereo not shown) [Example 51, N-(2-(3-(2-fluorophenyl)-6-(3-(2-hydroxybutyl)ureido)quinolin-2-yl)phenyl)acet-amide]",< 100 nM,< 100 nM,
"CC[C@@H](O)CNC(=O)Nc1ccc2nc(-c3ccccc3)c(-c3ccccc3)c(NC(=O)C3CC3)c2c1 [Example 92, (R)-N-(6-(3-(2-hydroxybutyl)ureido)-2,3-diphenylquinolin-4-yl)cyclopropane-carboxamide]",< 100 nM,< 100 nM,
"CCOc1ccccc1-c1nc2ccc(NC(=O)NCC(O)CC)cc2cc1-c1ccccc1 (stereo not shown) [Example 58, 1-(2-(2-ethoxyphenyl)-3-phenylquinolin-6-yl)-3-(2-hydroxybutyl) urea]",< 100 nM,< 100 nM,
"CC[C@@H](O)CNC(=O)Nc1ccc2nc(-c3ccccc3)c(-c3ccccc3)c(C(=O)Nc3ccn(C)n3)c2c1 [Example 112, (R)-6-(3-(2-hydroxybutyl)ureido)-N-(1-methyl-1H-pyrazol-3-yl)-2,3-diphenylquino-line-4-carboxamide]",< 100 nM,< 100 nM,
"CCC(O)CNC(=O)Nc1ccc2nc(-c3ccccc3F)c(-c3ccccc3OC)cc2c1 (stereo not shown) [Example 26, 1-(2-(2-fluorophenyl)-3-(2-methoxyphenyl)quinolin-6-yl)-3-(2-hydroxybutyl) urea]",< 100 nM,< 100 nM,
"CCC(O)CNC(=O)Nc1ccc2nc(-c3ccccc3)c(-c3ccccc3)c(C(=O)NC3CC3)c2c1 (stereo not shown) [Example 64, N-cyclopropyl-6-(3-(2-hydroxybutyl)ureido)-2,3-diphenylquino-line-4-carboxamide]",< 100 nM,< 100 nM,
"CC[C@H](O)CNC(=O)Nc1ccc2nc(-c3ccccc3)c(-c3ccccc3)cc2c1 [Example 68, (S)-1-(2,3-diphenylquino-lin-6-yl)-3-(2-hydroxybutyl) urea]",,,< 100 nM
